This note sets out measurements from PMC12282092, “Discovery of a non-nucleoside inhibitor that binds to a novel site in the palm domain of the respiratory syncytial virus RNA-dependent RNA polymerase” (Journal of Virology, 2025).

pEC50, pIC50: −log10 of the molar value. Bounds are passed on as bounds.

A word on the pEC50: it is the EC50 on a negative log10 scale, so that one unit is a factor of ten. By pIC50 is commonly meant −log10 of the IC50, conventionally taken in molar units. As usually defined, the stoichiometry N is a count of units in the complex or per binding partner.

The subject of series [1] is rgRSV224 virus (RSV A2) in HeLa cells. The series can be described thus: HeLa cell rgRSV224 eGFP reporter viral proliferation assay. To be noted: human respiratory syncytial virus, RSV eGFP phenotypic assay in HeLa cells; for pEC50: HeLa, 72 h, MOI 1, 72 h, n ≥ 2, read-out: Cellular EC50; for Emax: read-out: Cellular Emax. Type of series: cell-based. Here is the method:
(§1) Compound serial dilutions (9 point, fourfold) were prepared in DMSO, and 200 nL was transferred to black, 384-well, clear-bottom microtiter plates (Corning, Amsterdam, The Netherlands) via acoustic drop ejection ([36], [50]). […] Then, 20 µL of a HeLa cell suspension (3,000 cells/well) was added with a Multidrop Combi, and cells were incubated at 37°C in a 5% CO2 atmosphere. After 72 h, GFP expression was quantified using an EnVision Multimode Plate Reader (Perkin Elmer, Zaventem, Belgium), and data were normalized to untreated and media-only (no virus) controls. Cytotoxicity was determined in parallel using the ATPlite kit (Perkin Elmer, Zaventem, Belgium). Luminescence was measured in white, 384-well microtiter plates (Corning) on a ViewLux uHTS Microplate Imager apparatus (PerkinElmer, Zaventem, Belgium), and cellular ATP content was quantified by normalizing to untreated and media-only (no cell) controls. […] Figures were prepared with GraphPad Prism.

Series [2] is described as follows: Metabolic stability in liver microsomes. To be noted: in vitro intrinsic clearance in human liver microsomes, n = 1. On the technique in general: Liver microsomes are a subcellular fraction often used to study metabolism.
Series [3] deals with T1, RSV L+P (Human respiratory syncytial virus A, UniProt P28887).
T1 construct: Biochemical activity of 1 and 22 against full-length RSV L+P; Twin-Strep-tag (N); made in house; host or cells: Sf9 insect cells (baculovirus, pFastBac Dual)
T1 sequence (P03421 whole entry): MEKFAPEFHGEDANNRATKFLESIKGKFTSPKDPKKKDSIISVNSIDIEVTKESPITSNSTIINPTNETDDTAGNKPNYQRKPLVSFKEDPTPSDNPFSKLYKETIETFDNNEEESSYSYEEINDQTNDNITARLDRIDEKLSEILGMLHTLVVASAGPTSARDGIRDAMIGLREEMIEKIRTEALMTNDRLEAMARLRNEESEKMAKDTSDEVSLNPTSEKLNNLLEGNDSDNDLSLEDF
T1 sequence (P28887 whole entry): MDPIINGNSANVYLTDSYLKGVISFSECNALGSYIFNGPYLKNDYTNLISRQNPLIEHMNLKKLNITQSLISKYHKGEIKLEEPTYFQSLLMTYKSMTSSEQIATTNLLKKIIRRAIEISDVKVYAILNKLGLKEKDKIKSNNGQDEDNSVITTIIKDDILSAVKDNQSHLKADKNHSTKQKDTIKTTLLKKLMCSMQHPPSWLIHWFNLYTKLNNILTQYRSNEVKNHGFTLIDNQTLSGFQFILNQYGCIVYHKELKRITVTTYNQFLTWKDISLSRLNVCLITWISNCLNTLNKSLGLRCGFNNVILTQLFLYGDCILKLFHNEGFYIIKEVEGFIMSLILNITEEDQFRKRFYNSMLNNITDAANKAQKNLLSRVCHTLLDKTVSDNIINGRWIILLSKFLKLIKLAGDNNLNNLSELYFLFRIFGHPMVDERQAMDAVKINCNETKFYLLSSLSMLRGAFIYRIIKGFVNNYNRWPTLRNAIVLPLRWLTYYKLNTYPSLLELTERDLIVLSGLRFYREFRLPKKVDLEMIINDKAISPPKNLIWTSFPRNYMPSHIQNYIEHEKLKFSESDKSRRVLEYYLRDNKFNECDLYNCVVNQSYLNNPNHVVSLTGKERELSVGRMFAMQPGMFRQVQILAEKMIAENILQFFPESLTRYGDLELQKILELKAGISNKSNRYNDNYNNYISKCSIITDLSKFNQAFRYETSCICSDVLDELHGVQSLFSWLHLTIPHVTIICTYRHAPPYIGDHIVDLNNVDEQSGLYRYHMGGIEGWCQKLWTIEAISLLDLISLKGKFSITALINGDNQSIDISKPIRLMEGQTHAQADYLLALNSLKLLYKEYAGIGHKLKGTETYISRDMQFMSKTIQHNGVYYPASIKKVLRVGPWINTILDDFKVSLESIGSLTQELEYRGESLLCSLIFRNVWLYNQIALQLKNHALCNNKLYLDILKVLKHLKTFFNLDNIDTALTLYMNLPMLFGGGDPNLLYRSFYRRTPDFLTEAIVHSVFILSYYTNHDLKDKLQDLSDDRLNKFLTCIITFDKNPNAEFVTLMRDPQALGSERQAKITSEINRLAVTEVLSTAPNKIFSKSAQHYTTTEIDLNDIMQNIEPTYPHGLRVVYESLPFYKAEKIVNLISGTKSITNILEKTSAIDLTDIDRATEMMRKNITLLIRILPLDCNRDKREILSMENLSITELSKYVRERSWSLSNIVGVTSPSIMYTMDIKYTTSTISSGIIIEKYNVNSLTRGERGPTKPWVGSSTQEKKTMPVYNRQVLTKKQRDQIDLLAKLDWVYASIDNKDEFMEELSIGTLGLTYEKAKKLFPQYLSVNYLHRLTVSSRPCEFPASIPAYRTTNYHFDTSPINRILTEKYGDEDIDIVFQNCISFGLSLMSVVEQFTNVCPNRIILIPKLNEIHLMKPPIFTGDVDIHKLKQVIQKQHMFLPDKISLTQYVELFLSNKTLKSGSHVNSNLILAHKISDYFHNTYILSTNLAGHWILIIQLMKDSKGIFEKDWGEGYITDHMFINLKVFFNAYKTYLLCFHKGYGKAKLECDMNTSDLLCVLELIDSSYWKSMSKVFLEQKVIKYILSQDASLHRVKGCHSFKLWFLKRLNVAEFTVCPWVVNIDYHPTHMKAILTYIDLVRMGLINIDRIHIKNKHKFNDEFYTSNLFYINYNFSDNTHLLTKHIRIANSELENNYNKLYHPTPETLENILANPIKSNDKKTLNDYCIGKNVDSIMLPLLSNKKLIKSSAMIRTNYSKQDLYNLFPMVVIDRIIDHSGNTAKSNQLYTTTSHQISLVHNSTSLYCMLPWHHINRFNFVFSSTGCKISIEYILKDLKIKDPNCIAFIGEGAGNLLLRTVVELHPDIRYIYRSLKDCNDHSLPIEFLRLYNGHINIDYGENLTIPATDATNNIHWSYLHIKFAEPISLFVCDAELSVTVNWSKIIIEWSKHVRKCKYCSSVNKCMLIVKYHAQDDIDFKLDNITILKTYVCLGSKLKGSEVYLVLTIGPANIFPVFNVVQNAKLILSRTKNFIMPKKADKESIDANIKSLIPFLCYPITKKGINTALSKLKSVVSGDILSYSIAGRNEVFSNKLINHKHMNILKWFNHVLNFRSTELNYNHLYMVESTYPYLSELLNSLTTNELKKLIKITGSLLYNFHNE
The series can be described thus: Pyrophosphate luminescence detection assay, full-length RSV L+P. Type of series: biochemical. To be noted: for Emax: read-out: Biochemical Emax; for pIC50: read-out: Biochemical IC50.
Experimental: Working solutions (3×) of RSV L+P (60 nM), substrate (30 µM each of GTP, CTP, UTP, 300 µM ATPαS [Jena Bioscience], 15 µM RNA template TrC-25), detection reagents (6 nM Luciferase, 900 µM luciferin, 3 U/µL ATP Sulfurylase [BioVision], 15 µM adenosine phosphosulfate [APS], 3 mM coenzyme A), were prepared in complete assay buffer. Compounds were dissolved in dimethyl sulfoxide (DMSO) and dispensed to white, 1536-well cyclic olefin copolymer (COC) plates (Corning, 9145BC) using an Echo Acoustic Liquid Handler (Beckman Coulter, San Jose, CA). Substrate (1 µL) and detection reagents (1 µL) were dispensed using a Multidrop Combi Dispenser (ThermoFisher, Waltham, MA), followed by enzyme (1 µL) to initiate the reaction. Final screening concentrations were 20 nM RSV L+P, 10 µM GTP/CTP/UTP, 100 µM ATPαS, 5 µM TrC-25, 2 nM Luciferase (Promega), 300 µM luciferin (Promega), 1 U/µL ATP sulfurylase, 5 µM APS, and 1 mM CoA. […] Luminescence was detected using the PHERAStar FSX (BMG Labtech, Ortenberg, Germany).

Series [4] in a line: HeLa cytotoxicity assay (ATPlite). The conditions noted are these: human; for CC50 at 72 h: HeLa cells. Here is the method: as §1
In general terms: Cellular ATP, detected with luciferase, serves as a proxy for viable cell number.

For series [5], the system named is HeLa cells. Briefly: HeLa cytotoxicity assay (ATPlite). To be noted: HeLa cells. Here is the method: as §1
Series [6] deals with coupled enzyme system (ATP sulfurylase, luciferase). Briefly: Pyrophosphate detection counterscreen. Type of series: biochemical. The conditions noted are these: read-out: PPi counterscreen IC50. The protocol: To determine if compounds were interfering with the sulfurylase or luciferase in the pyrophosphate luminescence detection assay, a counterscreen was developed to monitor activity of the coupling system. Working solutions (3×) of substrate and detection reagents were prepared as before and added to 1536-well white, COC plates containing compound titrations. Then, 1 µL of a 3× solution of 4.5 µM sodium pyrophosphate (Sigma, P8010) was dispensed with the Multidrop Combi to initiate the reaction. […] Luminescence was detected using the PHERAStar FSX. […] Figures were prepared with GraphPad Prism.
On the technique in general: The purpose of a counterscreen is to sort out artefacts and off-target activity.

Series [7] concerns the target human mitochondrial RNA polymerase (POLRMT) (Homo sapiens, UniProt O00411). Briefly: POLRMT assay.
In series [8] the target is Full-length RSV P (1-241) protein (human RSV). The series can be described thus: cryo-EM structure; full-length RSV L+P complex with compound 22; 0.8 mg/mL on grids; global resolution 2.72 Å.
[9] abbreviates: pyrophosphate luminescence detection assay.
[10] abbreviates: pyrophosphate luminescence detection assay, full-length RSV L+P, n ≥ 2.

Sequence of human mitochondrial RNA polymerase (POLRMT) (O00411 103-1230): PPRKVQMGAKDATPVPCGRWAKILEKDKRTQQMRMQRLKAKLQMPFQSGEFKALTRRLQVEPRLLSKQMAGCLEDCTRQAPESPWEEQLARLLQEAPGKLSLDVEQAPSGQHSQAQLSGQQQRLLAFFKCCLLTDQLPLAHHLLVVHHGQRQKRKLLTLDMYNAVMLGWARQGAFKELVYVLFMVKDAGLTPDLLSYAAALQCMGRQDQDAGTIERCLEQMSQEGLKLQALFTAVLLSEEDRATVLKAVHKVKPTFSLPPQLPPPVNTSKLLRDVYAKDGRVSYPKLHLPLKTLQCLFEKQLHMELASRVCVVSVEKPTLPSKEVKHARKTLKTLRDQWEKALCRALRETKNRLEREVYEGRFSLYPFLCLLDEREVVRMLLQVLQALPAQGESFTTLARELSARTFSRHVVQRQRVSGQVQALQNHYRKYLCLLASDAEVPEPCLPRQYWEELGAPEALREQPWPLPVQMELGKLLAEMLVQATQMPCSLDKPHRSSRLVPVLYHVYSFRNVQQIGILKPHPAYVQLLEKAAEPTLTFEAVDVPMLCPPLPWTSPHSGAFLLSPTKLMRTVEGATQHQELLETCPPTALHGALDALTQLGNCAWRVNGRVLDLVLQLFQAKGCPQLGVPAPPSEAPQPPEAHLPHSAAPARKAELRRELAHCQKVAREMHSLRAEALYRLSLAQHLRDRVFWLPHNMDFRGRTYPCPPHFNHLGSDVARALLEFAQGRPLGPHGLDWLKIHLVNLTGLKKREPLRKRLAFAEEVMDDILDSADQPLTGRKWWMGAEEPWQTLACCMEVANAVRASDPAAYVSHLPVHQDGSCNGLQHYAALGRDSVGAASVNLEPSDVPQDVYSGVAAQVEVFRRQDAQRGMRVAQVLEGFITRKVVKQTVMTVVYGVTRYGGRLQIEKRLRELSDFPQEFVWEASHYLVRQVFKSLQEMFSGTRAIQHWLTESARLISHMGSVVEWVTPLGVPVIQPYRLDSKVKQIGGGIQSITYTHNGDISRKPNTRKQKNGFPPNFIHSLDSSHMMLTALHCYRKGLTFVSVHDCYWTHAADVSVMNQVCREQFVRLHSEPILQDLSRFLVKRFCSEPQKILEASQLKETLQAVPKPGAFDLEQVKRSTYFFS

For `N#Cc1ncc(N2CCC3(CC2)C(=O)Nc2ccc(Br)cc23)cc1Cl` [Compound 1, 5-(5-bromo-2-oxospiro[indoline-3,4'-piperidin]-1'-yl)-3-chloropicolinonitrile], the pEC50 in series [1] was 5.18. Also, the Emax came out at 94.6% in series [1] and 110% in series [3] (setting [9]). Further, the “HLM CLint” value in series [2] is <7.7 µL/min/mg microsomal protein. The compound further returned a CC50 at 72 h in series [4] of more than 3.8 µM. Besides, the “Cytotoxicity Emax” value in series [5] is recorded as 63.1%. For the same compound, the negative logarithm of the IC50 (pIC50) in series [6] and in series [7] was less than 4.00 each time. Besides, the “POLRMT IC50” value in series [7] (8 nM POLRMT) is given as “no activity”.

With `N#Cc1ncc(N2CCC3(CC2)C(=O)Nc2ccc(Cl)cc23)cc1Cl` [Compound 16, 3-chloro-5-(5-chloro-2-oxospiro[indoline-3,4'-piperidin]-1'-yl)picolinonitrile], in series [1], the pEC50 is 5.09 and the Emax stood at 94.2%. Moreover, the “HLM CLint” value in series [2] is <7.7 µL/min/mg microsomal protein. Besides, the negative-log IC50 (pIC50) in series [3] (setting [10]) is 5.99. The Emax in series [3] (setting [9]) turned out to be 108%. The compound further returned a CC50 at 72 h in series [4] of more than 13 µM. The “Cytotoxicity Emax” value in series [5] is given as 45.3%.

As to `Cc1ccc2c(c1)C1(CCN(c3cnc(C#N)c(Cl)c3)CC1)C(=O)N2` [Compound 17, 3-chloro-5-(5-methyl-2-oxospiro[indoline-3,4'-piperidin]-1'-yl)picolinonitrile], in series [1], the pEC50 was 4.96 and the Emax amounted to 55.1%. Further, in series [2], the “HLM CLint” value is given as 123 µL/min/mg microsomal protein. Also, the pIC50 in series [3] (setting [10]) is 5.76. The Emax in series [3] (setting [9]) was 111%. Besides, the CC50 at 72 h in series [4] was more than 50 µM. The “Cytotoxicity Emax” value in series [5] is 8.6%.

Consider `COc1ccc2c(c1)C1(CCN(c3cnc(C#N)c(Cl)c3)CC1)C(=O)N2` [Compound 18, 3-chloro-5-(5-methoxy-2-oxospiro[indoline-3,4'-piperidin]-1'-yl)picolinonitrile], for which, in series [1], the pEC50 is 4.80 and the Emax was 96.8%. Also, the pIC50 in series [3] (setting [10]) is 5.51. Besides, the Emax in series [3] (setting [9]) was determined as 100%. Moreover, the CC50 at 72 h in series [4] amounted to 24.4 µM. Also, the “Cytotoxicity Emax” value in series [5] stood at 82.4%.

In the case of `N#Cc1ncc(N2CCC3(CC2)C(=O)Nc2ccc(F)cc23)cc1Cl` [Compound 19, 3-chloro-5-(5-fluoro-2-oxospiro[indoline-3,4'-piperidin]-1'-yl)picolinonitrile], in series [1], the pEC50 is 5.18 and the Emax was 99.9%. Moreover, the “HLM CLint” value in series [2] was 19 µL/min/mg microsomal protein. The negative logarithm of the IC50 (pIC50) in series [3] (setting [10]) was 5.57. In series [3] (setting [9]), the Emax came to 106%. In addition, the CC50 at 72 h in series [4] is more than 50 µM. Also, in series [5], the “Cytotoxicity Emax” value was 52.2%.

As for `N#Cc1ncc(N2CCC3(CC2)C(=O)Nc2ccccc23)cc1Cl` [Compound 20, 3-chloro-5-(2-oxospiro[indoline-3,4'-piperidin]-1'-yl)picolinonitrile], the pEC50 in series [1] was 5.08. The figures for the Emax in series [1] and in series [3] (setting [9]) were 81.4% and 84.7%, respectively. For the same compound, in series [2], the “HLM CLint” value is recorded as 19.7 µL/min/mg microsomal protein. Also, the “loss in potency on replacing the bromo substituent with a proton” value in series [3] (compared to 1) was found to be 10 fold. Also, the negative-log IC50 (pIC50) in series [3] (setting [10]) is 5.18. For the same compound, the CC50 at 72 h in series [4] is more than 3.8 µM. In addition, in series [5], the “Cytotoxicity Emax” value came to 42.9%.

With `N#Cc1ncc(N2CCC3(CC2)C(=O)N(c2cccnc2)c2ccc(F)cc23)cc1Cl` [Compound 21, 3-chloro-5-(5-fluoro-2-oxo-1-(pyridin-3-yl)spiro[indoline-3,4'-piperidin]-1'-yl)picolinonitrile], the pEC50 in series [1] is 5.47. Besides, the values for the Emax in series [1] and in series [3] (setting [9]) were 95.8% and 107%, respectively. Further, in series [3] (setting [10]), the negative-log IC50 (pIC50) was 6.10. The same compound returned a CC50 at 72 h in series [4] of more than 2.71 µM. Also, in series [5], the “Cytotoxicity Emax” value amounted to 44.8%.

Take `CN1C(=O)C2(CCN(c3cnc(C#N)c(Cl)c3)CC2)c2cc(F)ccc21` [Compound 23, 3-chloro-5-(5-fluoro-1-methyl-2-oxospiro[indoline-3,4'-piperidin]-1'-yl)picolinonitrile]: in series [1], the negative-log EC50 (pEC50) was 5.44 and the Emax came to 93.3%. Also, in series [2], the “HLM CLint” value is 19 µL/min/mg microsomal protein. Besides, the Emax in series [3] (setting [9]) was found to be 103%. In addition, the CC50 at 72 h in series [4] was more than 3.74 µM. In addition, the “Cytotoxicity Emax” value in series [5] is given as 55.7%.

Regarding `N#Cc1ncc(N2CCC3(CC2)C(=O)N(CC2CC2)c2ccc(F)cc23)cc1Cl` [Compound 24, 3-chloro-5-(1-(cyclopropylmethyl)-5-fluoro-2-oxospiro[indoline-3,4'-piperidin]-1'-yl)picolinonitrile], the pEC50 in series [1] was 5.06. Moreover, the Emax came out at 78.3% in series [1] and 89.4% in series [3] (setting [9]). Also, the “HLM CLint” value in series [2] is 46.3 µL/min/mg microsomal protein. In addition, the CC50 at 72 h in series [4] is more than 7.77 µM. In series [5], the “Cytotoxicity Emax” value turned out to be 51.8%.

Regarding `N#Cc1ncc(N2CCC3(CC2)C(=O)N(CCF)c2ccc(F)cc23)cc1Cl` [Compound 25, 3-chloro-5-(5-fluoro-1-(2-fluoroethyl)-2-oxospiro[indoline-3,4'-piperidin]-1'-yl)picolinonitrile], the pEC50 in series [1] is 5.05. Moreover, the Emax stood at 80.3% in series [1] and 90.7% in series [3] (setting [9]). The “HLM CLint” value in series [2] is 14.1 µL/min/mg microsomal protein. Moreover, the pIC50 in series [3] (setting [10]) was 5.54. In series [4], this compound yielded a CC50 at 72 h of more than 23.4 µM. Also, the “Cytotoxicity Emax” value in series [5] was 66.5%.

For the compound `CN1C(=O)C2(CCN(c3ccc(C#N)c(Cl)n3)CC2)c2cc(F)ccc21` [Compound 29, 2-chloro-6-(5-fluoro-1-methyl-2-oxospiro[indoline-3,4'-piperidin]-1'-yl)nicotinonitrile], in series [1], the negative-log EC50 (pEC50) was 5.10 and the Emax is 94.3%. For the same compound, in series [2], the “HLM CLint” value is given as 31.9 µL/min/mg microsomal protein. Further, the negative-log IC50 (pIC50) in series [3] (setting [10]) was 5.81. The Emax in series [3] (setting [9]) stood at 95.5%. The CC50 at 72 h in series [4] was more than 8.43 µM. Further, the “Cytotoxicity Emax” value in series [5] came out at 66.9%.

In the case of `CN1C(=O)C2(CCN(c3ccc(C#N)c(Cl)c3)CC2)c2cc(F)ccc21` [Compound 30], in series [1], the pEC50 is 5.36 and the Emax was determined as 95.8%. In series [2], the “HLM CLint” value is given as 39.1 µL/min/mg microsomal protein. Also, the negative logarithm of the IC50 (pIC50) in series [3] (setting [10]) was 5.90. Moreover, the Emax in series [3] (setting [9]) turned out to be 100%. This compound also had a CC50 in series [4] of more than 6.65 µM. For the same compound, in series [5], the “Cytotoxicity Emax” value is listed as 58.0%.

In the case of `COc1cc(N2CCC3(CC2)C(=O)N(C)c2ccc(F)cc23)cnc1C#N` [Compound 31, 5-(5-fluoro-1-methyl-2-oxospiro[indoline-3,4'-piperidin]-1'-yl)-3-methoxypicolinonitrile], in series [1], the pEC50 was 5.06 and the Emax worked out at 98.6%. Further, in series [2], the “HLM CLint” value is recorded as 20.5 µL/min/mg microsomal protein. Besides, the negative logarithm of the IC50 (pIC50) in series [3] (setting [10]) was 5.53. Besides, in series [3] (setting [9]), the Emax was 115%. The CC50 at 72 h in series [4] is more than 22.7 µM. Further, the “Cytotoxicity Emax” value in series [5] came to 37.6%.

Take `Cc1cc(N2CCC3(CC2)C(=O)N(C)c2ccc(F)cc23)cc(F)c1C#N` [Compound 32, 2-fluoro-4-(5-fluoro-1-methyl-2-oxospiro[indoline-3,4'-piperidin]-1'-yl)-6-methylbenzonitrile]: in series [1], the negative-log EC50 (pEC50) was 4.86. For the same compound, the Emax in series [1] was 92.6%; in series [3] (setting [9]), 91.2%. The “HLM CLint” value in series [2] is on record as 64.8 µL/min/mg microsomal protein. Also, the pIC50 in series [3] (setting [10]) is 5.72. Further, the CC50 at 72 h in series [4] is more than 5.78 µM. Also, in series [5], the “Cytotoxicity Emax” value is on record as 50.9%.

Take `CN1C(=O)C2(CCN(c3cnc(N4CCOCC4)c(Cl)c3)CC2)c2cc(F)ccc21` [Compound 34, 1'-(5-chloro-6-morpholinopyridin-3-yl)-5-fluoro-1-methylspiro[indoline-3,4'-piperidin]-2-one]: in series [1], the negative-log EC50 (pEC50) is 4.52 and the Emax is 49.6%. Besides, the “HLM CLint” value in series [2] is recorded as 126 µL/min/mg microsomal protein. In addition, in series [3] (setting [10]), the “Biochemical IC50” value was “inactive” and the pIC50 was less than 4.52. The Emax in series [3] (setting [9]) amounted to 69.5%. In series [4], this compound had a CC50 at 72 h of more than 50 µM. For the same compound, the “Cytotoxicity Emax” value in series [5] was 41.6%.

For “Full-length RSV P (1-241) protein (natural protein)”, in series [8], the stoichiometry N was found to be 4.
